This data set can be described thus: Dye solubility in deionised water. As to conditions: for solubility (in words): assessment of state-of-the-art dyes in the background section. In kind it is physicochemical. Here is the method:
An excess of dye was vigorously stirred in deionised water for 1 hour at a temperature of 50° C. The mixture was then cooled down to a temperature of 20° C. and filtered. Dye solubility was determined spectroscopically in the clear filtered solution.

On to `Nc1ccc2cc(S(=O)(=O)[O-])cc(O)c2c1N=Nc1cc(NC(=O)CCC(=O)[O-])ccc1S(=O)(=O)[O-].[Na+].[Na+].[Na+]` [Compound 120], for which, under “comparison drawn from Table 3”, the “solubility in comparison to the known dye Acid Red 37” value was “significantly higher”. Consider `Nc1ccc2cc(S(=O)(=O)[O-])cc(O)c2c1N=Nc1ccc(Nc2nc(NCCS(=O)(=O)[O-])nc(NCCS(=O)(=O)[O-])n2)cc1S(=O)(=O)[O-].[Na+].[Na+].[Na+].[Na+]` [II], for which the “solubility (in words)” value was “high solubility”. Regarding Acid Red 37, the “solubility (in words)” value is on record as “not sufficient”. The “Solubility (in g per 100 ml of water)” value (excess dye stirred in deionised water 1 hour at 50° C., cooled to 20° C., filtered, determined spectroscopically) is reported as 5 g per 100 ml of water.

The values above are taken from US6562115B2, “Azo dyes and their preparation and use” (Ilford Imaging Switzerland GmbH, priority 2000, dated 2003).
